# Results as given in paper PMC9646836, “Tetrahydroquinolinone derivatives exert antiproliferative effect on lung cancer cells through apoptosis induction” (Scientific Reports, 2022).
# Tests used:
# MCF-7 = experiment: MTT cell viability assay, MCF-7; type: cell-based, human; details: Homo sapiens, MCF7, 72 h, mean ± SD, n = 3
# Procedure: (§1) All new tetrahydroquinoline derivatives were assessed for cytotoxicity on a broad panel of cancer and normal cell lines, using the MTT assay. The half-inhibitory growth inhibitory concentration (IC50) values of each compound were calculated after 72 h of treatment and presented in Table 1. […] In this assay, the IC50 value of 5-FU and ETP was recorded as a positive control.
# (§2) Non-small cell lung cancer cells A549 (CCL-185), breast cancer cells MCF-7 ([…]), hepatocarcinoma cells HepG2 ([…]), normal kidney cells HEK293 (CRL-1573), and osteosarcoma cells U-2 OS (HTB-96) were obtained from the American Type Culture Collection. HCT-116 cell line was kindly provided by prof. Bert Vogelstein (Johns Hopkins University, Howard Hughes Medical Institute, USA). The obtained A549 and MCF-7 cells were cultured in RPMI-1640 medium, HepG2 cells in Minimum Essential Medium Eagle medium, HEK-293 cells in Dulbecco’s Modified Eagle’s medium, and U-2 OS and HCT-116 cells in McCoy’s […] medium. All culture media were supplemented with 10% fetal bovine serum, 2 mM L-glutamine, and antibiotics (penicillin 62.6 µg/ml and streptomycin 40 µg/ml; Sigma-Aldrich). Both cancer and normal cells were cultured at 37 °C under a humidified atmosphere with 5% or 10% CO2 and routinely screened for Mycoplasma contamination. All materials and reagents were obtained from Corning unless stated otherwise.
# (§3) The cytotoxic effect of the synthesized compounds was assessed by the MTT (4,5-dimethylthiazol-2-yl-2,5-diphenyltetrazoliumbromide; Sigma-Aldrich) assay. Briefly, the cells were seeded into 96-well transparent flat-bottom plates and allowed to attach overnight. On the next day, the cells were treated with compounds in the range of 0–50 µM for 72 h. Dimethyl sulfoxide (DMSO; Merck) and 5-fluorouracil (5-FU; Sigma-Aldrich) were used as a reference. After exposure to the compounds, 20 μl of the MTT solution at a concentration of 4 mg/ml was added to each well, and the plates were incubated again for 2–3 h at 37 °C. Next, the media in the wells was replaced with 100 μl DMSO to solubilize the formazan crystals. The absorbance was measured at 540 nm using an ASYS UVM340 microplate reader (Biochrom Ltd.). The IC50 value of the compounds was calculated using GraphPad Prism 9 software, based on the curves plotted with survival as a function of dose, averaged from three independent experiments.
# A549 cells = experiment: Cell cycle progression (propidium iodide, flow cytometry); type: cell-based, human; details: A549, IC50 concentration
# Procedure: A549 and HCT-116 cells were incubated with the tested compounds at their IC50 concentrations for 24, 48, and 72 h. DMSO (1% v/v) was used as a reference (Sigma-Aldrich). After incubation, the cells were collected in trypsin, fixed with 75% ice-cold ethanol, and stored overnight at − 20 °C. Then, the cells were stained with 20 μg/ml propidium iodide (Sigma-Aldrich) and 50 μg/ml RNaseA (Thermo Fisher Scientific) in phosphate-buffered saline (PBS) for 30 min at room temperature (RT). The content of DNA in cells was determined by flow cytometry (Guava EasyCyte 8 cell sorter; Merck Millipore) using FlowJo software v10. Each experiment was repeated three times.
# [1] = tested on: apoptosis-related proteins in A549 cells; experiment: Western blotting of apoptosis-related proteins; type: cell-based, human
# Procedure: The expression of apoptosis-related proteins was determined by Western blotting. Briefly, A549 cells were treated with compound 4a at its IC50 concentration for 6, 24, and 48 h. The cells treated with 1% v/v DMSO served as the negative control. The total protein content was extracted from the cells using the NP-40 cell lysis buffer (10 mM Tris–HCl pH 7.4, 10 mM NaCl, 3 mM MgCl2, 0.5% Nonidet P-40, cOmplete Mini EDTA-free Protease Inhibitor Cocktail). Then, 30 µg of protein extract was separated by 10% sodium dodecyl sulfate–polyacrylamide gel electrophoresis, and the separated proteins were transferred to microporous polyvinylidene difluoride membranes (Bio-Rad). The membranes were blocked with 5% bovine serum albumin in tris-buffered saline-Tween 20 (TBST) buffer (0.2 M Tris-base, 0.137 M NaCl, 0.1% Tween 20) for 1 h at RT, and incubated overnight with primary antibodies at 4 °C. The blots were washed three times with TBST and incubated with appropriate peroxidase-conjugated secondary antibodies for 1 h at RT. Then, the blots were washed in TBST for 30 min and developed using an enhanced chemiluminescence detection reagent kit (Thermo Fisher Scientific) and a ChemiDoc XRS + Imaging System (Bio-Rad). All materials and reagents were obtained from Sigma-Aldrich unless stated otherwise.
# HEK293 = experiment: MTT cell viability assay, HEK293 normal kidney cells; type: cell-based, human
# Procedure: as §1, §2, §3
# A549 = experiment: MTT cell viability assay, A549; type: cell-based, human; details: Homo sapiens, A549, 72 h, mean ± SD, n = 3
# Procedure: as §1, §2, §3
# HepG2 = experiment: MTT cell viability assay, HepG2; type: cell-based; details: Homo sapiens, HepG2, 72 h, mean ± SD, n = 3
# Procedure: as §1, §2, §3
# [2] = A549, IC50 concentration, 6, 24, 48 h
smiles,measurement,setting,value
"O=c1[nH]c2c(c(-c3ccccc3)c1Cc1cccc3ccccc13)CCCC2 [Compound 4a, 3-(1-naphthylmethyl)-4-phenyl-5,6,7,8-tetrahydro-1H-quinolin-2-one]",IC50,MCF-7,> 50 µM
same,fraction of cells at the G0/G1 phase,A549 cells,time-dependent decrease
same,fraction of cells in sub-G0 phase,A549 cells,concomitant increase
same,fraction of cells in G2 phase,A549 cells; 24 h (DMSO 3.2%),15.5%
same,fraction of cells in G2 phase,A549 cells; 48 h (DMSO 3.2%),33.8%
same,PARP-1 band,[1]; [2],proteolytic cleavage
same,"caspase-3, caspase-8, and caspase-9",[1]; [2],cleaved into their corresponding catalytically active forms
same,expression of BAD protein,[1]; [2],higher than that in the control group
same,expression of BAX protein,[1]; [2],higher than that in the control group
same,expression of BCL-2 protein,[1]; [2],significantly decreased
same,expression of BID,[1]; [2],slightly activated
same,expression of AIF,"[1]; A549, IC50 concentration, vs DMSO-treated control",remained unchanged
same,IC50,"HEK293; Homo sapiens, HEK293, MTT, 72 h, normal kidney cells, mean ± SD, n = 3",49 ± 2.21 µM
same,suppressive effect on human normal HEK293 kidney cells,"HEK293; tested concentrations, compared to A549 and HCT-116",almost no suppressive effect
same,IC50,A549,11.3 ± 0.67 µM
same,IC50,HepG2,> 50 µM
